Measurements: the supplement of paper PMC10307832

Key:
Assay in all cases: relative viability (nuclei count vs DMSO), 5 days (fraction); higher = more cells survive
ChaGo-K-1 = tested on: ChaGo-K-1
How it was run: (§1)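 Dosing by pin tool came one day after lung cancer cell lines were seeded in 1536-well plates, using either one drug or a fixed anchor-drug dose plus five library-drug doses (not always all listed) in √10 steps. After 5 days, nuclei were counted on 4× images. Relative viability is treated-well nuclei count divided by vehicle-well nuclei count, and values are medians of duplicate plates.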

EMC-BAC-2 = tested on: EMC-BAC-2
How it was run: as §1

EPLC-272H = tested on: EPLC-272H
How it was run: as §1

HCC-44 = tested on: HCC-44
How it was run: as §1

HOP-62 = tested on: HOP-62
How it was run: as §1

LCLC-103H = tested on: LCLC-103H
How it was run: as §1

LOU-NH91 = tested on: LOU-NH91
How it was run: as §1

NCI-H1437 = tested on: NCI-H1437
How it was run: as §1

NCI-H1793 = tested on: NCI-H1793
How it was run: as §1

NCI-H2009 = tested on: NCI-H2009
How it was run: as §1

NCI-H2023 = tested on: NCI-H2023
How it was run: as §1

NCI-H2126 = tested on: NCI-H2126
How it was run: as §1

NCI-H2170 = tested on: NCI-H2170
How it was run: as §1

NCI-H2347 = tested on: NCI-H2347
How it was run: as §1

NCI-H23 = tested on: NCI-H23
How it was run: as §1

NCI-H2405 = tested on: NCI-H2405
How it was run: as §1

NCI-H441 = tested on: NCI-H441
How it was run: as §1

NCI-H460 = tested on: NCI-H460
How it was run: as §1

NCI-H520 = tested on: NCI-H520
How it was run: as §1

NCI-H647 = tested on: NCI-H647
How it was run: as §1

NCI-H650 = tested on: NCI-H650
How it was run: as §1

NCI-H727 = tested on: NCI-H727
How it was run: as §1

SW 1573 = tested on: SW 1573
How it was run: as §1

In the case of `O=C(O)CCCCC(CCSCc1ccccc1)SCc1ccccc1` (stereo not given) [CPI-613] + CC(=O)c1c(C)c2cnc(Nc3ccc(N4CCNCC4)cn3)nc2n(C2CCCC2)c1=O [Palbociclib] (partner 0.5 µM), the relative viability (ChaGo-K-1; first compound 5 µM) is reported as 0.868, the relative viability (ChaGo-K-1; first compound 15.81 µM) is reported as 0.902 and the relative viability (ChaGo-K-1; first compound 50 µM) is reported as 0.842. The relative viability (ChaGo-K-1; first compound 158.11 µM) was 0.339, the relative viability (ChaGo-K-1; first compound 500 µM) was 0.419 and the relative viability (EMC-BAC-2; first compound 5 µM) was 0.524. It also gave a relative viability (EMC-BAC-2; first compound 15.81 µM) of 0.506, a relative viability (EMC-BAC-2; first compound 50 µM) of 0.514 and a relative viability (EMC-BAC-2; first compound 158.11 µM) of 0.267. For the same compound, the relative viability (EMC-BAC-2; first compound 500 µM) was 0.265, the relative viability (EPLC-272H; first compound 5 µM) was 0.348 and the relative viability (EPLC-272H; first compound 15.81 µM) was 0.315. For the same compound, the relative viability (EPLC-272H; first compound 50 µM) was 0.306, the relative viability (EPLC-272H; first compound 158.11 µM) was 0.316 and the relative viability (EPLC-272H; first compound 500 µM) was 0.259. For the same compound, the relative viability (HCC-44; first compound 5 µM) was 0.959, the relative viability (HCC-44; first compound 15.81 µM) was 0.954 and the relative viability (HCC-44; first compound 50 µM) was 1.04. For the same compound, the relative viability (HCC-44; first compound 158.11 µM) was 0.6, the relative viability (HCC-44; first compound 500 µM) was 0.606 and the relative viability (HOP-62; first compound 5 µM) was 0.437. For the same compound, the relative viability (HOP-62; first compound 15.81 µM) was 0.45, the relative viability (HOP-62; first compound 50 µM) was 0.427 and the relative viability (HOP-62; first compound 158.11 µM) was 0.186. The relative viability (HOP-62; first compound 500 µM) was 0.126, the relative viability (LCLC-103H; first compound 5 µM) was 0.464 and the relative viability (LCLC-103H; first compound 15.81 µM) was 0.456. It also gave a relative viability (LCLC-103H; first compound 50 µM) of 0.455, a relative viability (LCLC-103H; first compound 158.11 µM) of 0.343 and a relative viability (LCLC-103H; first compound 500 µM) of 0.213. The relative viability (LOU-NH91; first compound 5 µM) was 0.506, the relative viability (LOU-NH91; first compound 15.81 µM) was 0.548 and the relative viability (LOU-NH91; first compound 50 µM) was 0.522. For the same compound, the relative viability (LOU-NH91; first compound 158.11 µM) was 0.402, the relative viability (LOU-NH91; first compound 500 µM) was 0.435 and the relative viability (NCI-H1437; first compound 5 µM) was 0.284. The relative viability (NCI-H1437; first compound 15.81 µM) was 0.281, the relative viability (NCI-H1437; first compound 50 µM) was 0.292 and the relative viability (NCI-H1437; first compound 158.11 µM) was 0.0875. For the same compound, the relative viability (NCI-H1437; first compound 500 µM) was 0.026, the relative viability (NCI-H1793; first compound 5 µM) was 0.269 and the relative viability (NCI-H1793; first compound 15.81 µM) was 0.33. The relative viability (NCI-H1793; first compound 50 µM) was 0.258, the relative viability (NCI-H1793; first compound 158.11 µM) was 0.112 and the relative viability (NCI-H1793; first compound 500 µM) was 0.0566. For the same compound, the relative viability (NCI-H2009; first compound 5 µM) was 0.229, the relative viability (NCI-H2009; first compound 15.81 µM) was 0.207 and the relative viability (NCI-H2009; first compound 50 µM) was 0.221. For the same compound, the relative viability (NCI-H2009; first compound 158.11 µM) was 0.0593, the relative viability (NCI-H2009; first compound 500 µM) was 0.0128 and the relative viability (NCI-H2023; first compound 5 µM) was 0.335. It also gave a relative viability (NCI-H2023; first compound 15.81 µM) of 0.323, a relative viability (NCI-H2023; first compound 50 µM) of 0.35 and a relative viability (NCI-H2023; first compound 158.11 µM) of 0.0317. The relative viability (NCI-H2023; first compound 500 µM) was 0.0063, the relative viability (NCI-H2126; first compound 5 µM) was 0.334 and the relative viability (NCI-H2126; first compound 15.81 µM) was 0.363. The relative viability (NCI-H2126; first compound 50 µM) was 0.338, the relative viability (NCI-H2126; first compound 158.11 µM) was 0.213 and the relative viability (NCI-H2126; first compound 500 µM) was 0.162. The relative viability (NCI-H2170; first compound 5 µM) was 0.379, the relative viability (NCI-H2170; first compound 15.81 µM) was 0.415 and the relative viability (NCI-H2170; first compound 50 µM) was 0.382. The relative viability (NCI-H2170; first compound 158.11 µM) was 0.372, the relative viability (NCI-H2170; first compound 500 µM) was 0.219 and the relative viability (NCI-H2347; first compound 5 µM) was 0.434. It also gave a relative viability (NCI-H2347; first compound 15.81 µM) of 0.379, a relative viability (NCI-H2347; first compound 50 µM) of 0.404 and a relative viability (NCI-H2347; first compound 158.11 µM) of 0.392. For the same compound, the relative viability (NCI-H2347; first compound 500 µM) was 0.22, the relative viability (NCI-H23; first compound 5 µM) was 0.465 and the relative viability (NCI-H23; first compound 15.81 µM) was 0.465. The relative viability (NCI-H23; first compound 50 µM) was 0.519, the relative viability (NCI-H23; first compound 158.11 µM) was 0.104 and the relative viability (NCI-H23; first compound 500 µM) was 0.0119. For the same compound, the relative viability (NCI-H2405; first compound 5 µM) was 0.558, the relative viability (NCI-H2405; first compound 15.81 µM) was 0.499 and the relative viability (NCI-H2405; first compound 50 µM) was 0.453. The relative viability (NCI-H2405; first compound 158.11 µM) was 0.167, the relative viability (NCI-H2405; first compound 500 µM) was 0.316 and the relative viability (NCI-H441; first compound 5 µM) was 0.222. For the same compound, the relative viability (NCI-H441; first compound 15.81 µM) was 0.197, the relative viability (NCI-H441; first compound 50 µM) was 0.18 and the relative viability (NCI-H441; first compound 158.11 µM) was 0.136. It also gave a relative viability (NCI-H441; first compound 500 µM) of 0.0142, a relative viability (NCI-H460; first compound 5 µM) of 0.197 and a relative viability (NCI-H460; first compound 15.81 µM) of 0.0984. It also gave a relative viability (NCI-H460; first compound 50 µM) of 0.0912, a relative viability (NCI-H460; first compound 158.11 µM) of 0.0107 and a relative viability (NCI-H460; first compound 500 µM) of 0.0087. For the same compound, the relative viability (NCI-H520; first compound 5 µM) was 0.225, the relative viability (NCI-H520; first compound 15.81 µM) was 0.2 and the relative viability (NCI-H520; first compound 50 µM) was 0.169. The relative viability (NCI-H520; first compound 158.11 µM) was 0.119, the relative viability (NCI-H520; first compound 500 µM) was 0.117 and the relative viability (NCI-H647; first compound 5 µM) was 0.341. The relative viability (NCI-H647; first compound 15.81 µM) was 0.312, the relative viability (NCI-H647; first compound 50 µM) was 0.316 and the relative viability (NCI-H647; first compound 158.11 µM) was 0.022. It also gave a relative viability (NCI-H647; first compound 500 µM) of 0.0072, a relative viability (NCI-H650; first compound 5 µM) of 0.337 and a relative viability (NCI-H650; first compound 15.81 µM) of 0.312. The relative viability (NCI-H650; first compound 50 µM) was 0.306, the relative viability (NCI-H650; first compound 158.11 µM) was 0.269 and the relative viability (NCI-H650; first compound 500 µM) was 0.262. For the same compound, the relative viability (NCI-H727; first compound 5 µM) was 0.673, the relative viability (NCI-H727; first compound 15.81 µM) was 0.614 and the relative viability (NCI-H727; first compound 50 µM) was 0.566. It also gave a relative viability (NCI-H727; first compound 158.11 µM) of 0.655, a relative viability (NCI-H727; first compound 500 µM) of 0.634 and a relative viability (SW 1573; first compound 5 µM) of 0.336. The relative viability (SW 1573; first compound 15.81 µM) was 0.579, the relative viability (SW 1573; first compound 50 µM) was 0.384 and the relative viability (SW 1573; first compound 158.11 µM) was 0.0841. It also gave a relative viability (SW 1573; first compound 500 µM) of 0.056.
